Test results from patent publication US9394286B2, “Rock inhibitors” (Amakem NV, priority 2012, dated 2016).
Where a name gives a salt, the structure may show the parent alone.

Experiments:
ROCK2 = ROCK2 (Homo sapiens, UniProt O75116); experiment: Kinase inhibition (ROCKI & ROCKII), radiometric 33P-ATP assay; assay type: biochemical; settings: ROCK 1 nM, 120 min at room temperature
Method: On-target activity against ROCK was measured in a biochemical assay, using the following reagents: Base Reaction buffer; 20 mM Hepes (pH 7.5), 10 mM MgCl2, 1 mM EGTA, 0.02% Brij35, 0.02 mg/ml BSA, 0.1 mM Na3VO4, 2 mM DTT, 1% DMSO. Required cofactors are added individually to each kinase reaction. The reaction procedure first involved the preparation of a peptide substrate in a freshly prepared reaction buffer. Required cofactors were then added to the substrate solution. ROCK (1 nM final concentration) was then delivered to the substrate solution. After gentle mix, DMSO solutions of the test compounds were added to the enzyme. Substrate mix ^33P-ATP (specific activity 0.01 μCi/μl final) was then delivered into the reaction mixture to initiate the reaction. The kinase reaction was incubated for 120 min. at room temperature. Reactions were then spotted onto P81 ion exchange paper (Whatman #3698-915). Filters were washed extensively in 0.1% Phosphoric acid. A radiometric count was then performed and IC50 values were subsequently determined.
The IC50 values obtained (in accordance with the protocol set forth above) are represented as follows: “+++” means IC50 below 0.1 μM, “++” means IC50 between 0.1 μM and 1 μM; “+” means IC50 between 1 and 10 μM and “ND” means “not determined yet”.

[1] = Stability assay in human plasma; assay type: in vitro ADME; settings: 1 μM compound, LC-MS/MS, read-out: t½ human plasma
Method: (§1) Compounds are incubated at a concentration of 1 μM in human or animal (rat, mice or rabbit) […] or whole blood. Samples are taken at fixed time points and the remnant of compound is determined by LC-MS/MS after protein precipitation. Half life is expressed in minutes.

[2] = Stability assay in human whole blood; assay type: in vitro ADME; settings: 1 μM compound, LC-MS/MS, read-out: t½ human whole blood
Method: as §1

[3] = Stability assay in rabbit aqueous humor; assay type: in vitro ADME; settings: 1 μM compound in rabbit aqueous humor, LC-MS/MS; read-out: t½ AH
Method: Compounds are incubated at a concentration of 1 μM in rabbit aqueous humor (AH). Samples are taken at fixed time points and the remnant of compound is determined by LC-MS/MS after protein precipitation. Half life is expressed in minutes.

[4] = test system: MLC-T18/S19 phosphorylation; experiment: Myosin light chain phosphorylation assay (ELISA) in A7r5 cells; assay type: cell-based, Rat; settings: for EC50: Rattus norvegicus, MLC-T18/S19 phosphorylation, A7r5 cells, serum-free medium
Method: Rat smooth muscle cell line A7r5 is used. The endogenous expression of ROCK results in a constitutive phosphorylation of the regulatory myosin light chain at T18/S19. A7r5 cells were plated in DMEM supplemented with 10% FCS in multiwall cell culture plates. After serum starvation overnight, cells were incubated with compounds in serum-free medium.
Quantification of MLC-T18/S19 phosphorylation is assesses in 96 well-plates via ELISA using a phspho-MLC-T18/S19 specific antibody and a secondary detection antibody. Relative MLC phosphorylation is measured with respect to untreated cells (Positive control, 1.0) and cells treated with 100 μM Y-27632 (Negative control, 0.0). EC50 values were determined using GraphPad Prism 5.01 software using a nonlinear regression curve fit with variable hill slope.
The […] values obtained (in accordance with the protocols set forth above) are represented as follows: “+++” means EC50 below 0.3 μM, “++” means EC50 between 0.3 μM and 1 μM; “+” means EC50 between 1 and 10 μM and “−” means EC50>10 μM.

Sequence of ROCK2 (O75116 whole entry, species assumed): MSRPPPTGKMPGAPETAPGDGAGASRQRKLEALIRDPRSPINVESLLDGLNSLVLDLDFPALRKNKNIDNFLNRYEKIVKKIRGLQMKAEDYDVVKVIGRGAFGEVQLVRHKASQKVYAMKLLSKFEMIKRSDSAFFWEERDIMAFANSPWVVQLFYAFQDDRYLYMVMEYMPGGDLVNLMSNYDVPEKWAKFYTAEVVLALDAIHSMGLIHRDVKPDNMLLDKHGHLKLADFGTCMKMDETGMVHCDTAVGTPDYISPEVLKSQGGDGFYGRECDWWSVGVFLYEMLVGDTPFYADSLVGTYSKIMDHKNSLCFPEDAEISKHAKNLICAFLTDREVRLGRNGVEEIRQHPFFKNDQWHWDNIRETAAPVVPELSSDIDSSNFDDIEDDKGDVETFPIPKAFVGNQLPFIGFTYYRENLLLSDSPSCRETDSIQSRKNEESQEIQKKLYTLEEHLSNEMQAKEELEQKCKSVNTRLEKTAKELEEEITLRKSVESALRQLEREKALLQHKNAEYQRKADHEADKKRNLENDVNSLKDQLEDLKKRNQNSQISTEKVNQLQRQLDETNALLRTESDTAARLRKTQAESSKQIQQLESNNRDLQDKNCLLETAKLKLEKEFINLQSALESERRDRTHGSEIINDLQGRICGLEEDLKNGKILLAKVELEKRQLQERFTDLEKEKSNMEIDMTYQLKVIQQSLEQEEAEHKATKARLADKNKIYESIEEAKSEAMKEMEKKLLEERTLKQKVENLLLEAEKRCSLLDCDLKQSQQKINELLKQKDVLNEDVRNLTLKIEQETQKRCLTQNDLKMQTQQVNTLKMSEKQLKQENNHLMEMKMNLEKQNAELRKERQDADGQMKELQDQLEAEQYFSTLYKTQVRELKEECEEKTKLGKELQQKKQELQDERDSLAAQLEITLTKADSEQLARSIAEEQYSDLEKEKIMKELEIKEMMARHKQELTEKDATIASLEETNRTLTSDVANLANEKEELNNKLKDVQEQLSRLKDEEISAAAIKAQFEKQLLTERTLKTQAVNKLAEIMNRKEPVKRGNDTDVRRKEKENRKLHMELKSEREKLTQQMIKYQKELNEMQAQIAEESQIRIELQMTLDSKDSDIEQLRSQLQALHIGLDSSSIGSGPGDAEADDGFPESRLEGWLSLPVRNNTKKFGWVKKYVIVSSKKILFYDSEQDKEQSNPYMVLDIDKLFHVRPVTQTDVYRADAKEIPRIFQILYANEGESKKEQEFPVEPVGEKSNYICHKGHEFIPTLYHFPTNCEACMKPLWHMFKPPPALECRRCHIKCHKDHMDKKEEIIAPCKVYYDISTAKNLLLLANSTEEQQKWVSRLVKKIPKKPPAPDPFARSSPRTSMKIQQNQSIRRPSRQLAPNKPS

| IC50 (ROCK2) [nM] | half-life at 1 μM [1] [min] | half-life at 1 μM [2] [min] | half-life at 1 μM [3] [min] | EC50 [4] [nM] | difference in EC50 values between compound 32 and its metabolite Met1 ([4]; MLC phosphorylation assay, FIG. 1, Met1 versus parent compound 32) [fold] | Structure (SMILES) |
| --- | --- | --- | --- | --- | --- | --- |
| < 100 | – | – | – | – | – | COC(=O)c1ccc(C(=O)Nc2cccc(CNC3CCC(Nc4cccc5cnccc45)CC3)c2)cc1 (stereo not shown) [Compound 17] |
| < 100 | < 20 | < 20 | 77 | – | – | O=C(Nc1cccc(CN2CCC(Nc3cccc4cnccc34)C2)c1)c1cccc(C(=O)OCC2CCCO2)c1 (stereo not shown) [Compound 23] |
| < 100 | < 20 | – | – | < 300 | – | COC(=O)c1cccc(C(=O)Nc2cccc(CNC3CCC(Nc4cccc5cnccc45)CC3)c2)c1 (stereo not shown) [Compound 16] |
| < 100 | – | – | – | – | – | CCCOC(=O)c1ccc(C(=O)Nc2cccc(CNC3CCC(Nc4cccc5cnccc45)CC3)c2)cc1 (stereo not shown) [Compound 30] |
| < 100 | – | – | – | – | – | COC(=O)c1cccc(C(=O)Nc2cccc(CN3CCC(Nc4cccc5cnccc45)CC3)c2)c1 [Compound 18] |
| < 100 | – | – | > 120 | < 300 | – | COC(=O)c1cccc(C(=O)Nc2cccc(CN3CCC(Nc4cccc5cnccc45)C3)c2)c1 (stereo not shown) [Compound 1, Methyl 3-((3-((3-(isoquinolin-5-ylamino)pyrrolidin-1-yl)methyl)phenyl)carbamoyl)benzoate] |
| – | – | – | – | 1000 to 10000 | – | O=S(=O)(c1cccc2cnccc12)N1CCCNCC1 [Fasudil, reference compound] |
| < 100 | < 20 | – | > 120 | – | – | O=C(Nc1cccc(CNC2CCC(Nc3cccc4cnccc34)CC2)c1)c1cccc(C(=O)OCC2CCCO2)c1 (stereo not shown) [Compound 29] |
| – | – | – | – | 300 to 1000 | – | C[C@@H](N)[C@H]1CC[C@H](C(=O)Nc2ccncc2)CC1 [Compound Y-27632, Y-27632, reference compound] |
| < 100 | – | – | – | – | – | CCCOC(=O)c1ccc(C(=O)Nc2cccc(CN3CCC(Nc4cccc5cnccc45)CC3)c2)cc1 [Compound 36] |
| < 100 | – | – | – | – | – | COC(=O)c1ccc(C(=O)Nc2cccc(CN3CCC(Nc4cccc5cnccc45)CC3)c2)cc1 [Compound 19] |
| – | 33 | – | > 120 | – | – | COC(=O)c1cccc(C(=O)Nc2cc(CN3CCCC(Nc4ccc5[nH]ncc5c4)C3)ccc2C)c1 (stereo not shown) [Compound 3, Methyl 3-((5-((3-((1H-indazol-5-yl)amino)piperidin-1-yl)methyl)-2-methylphenyl)carbamoyl)benzoate dihydrochloride] |
| < 100 | – | – | – | – | – | O=C(Nc1cccc(CN2CCC(Nc3cccc4cnccc34)C2)c1)c1ccc(C(=O)OCC2CCCO2)cc1 (stereo not shown) [Compound 26] |
| – | 31 | – | > 120 | – | – | COC(=O)c1cccc(C(=O)Nc2cc(CN3CCC(Nc4cccc5cnccc45)C3)ccc2C)c1 (stereo not shown) [Compound 7] |
| < 100 | – | – | – | – | – | COCCOC(=O)c1ccc(C(=O)Nc2cccc(CN3CCC(Nc4cccc5cnccc45)CC3)c2)cc1 [Compound 37] |
| < 100 | < 20 | < 20 | 120 | < 300 | – | CCCOC(=O)c1cccc(C(=O)Nc2cccc(CN3CCC(Nc4cccc5cnccc45)C3)c2)c1 (stereo not shown) [Compound 21] |
| < 100 | 20 | – | – | 300 to 1000 | – | O=C(Nc1cccc(CNC2CCC(Nc3cccc4cnccc34)CC2)c1)c1ccc(C(=O)OCC2CCCO2)cc1 (stereo not shown) [Compound 32] |
| < 100 | < 20 | < 20 | > 120 | < 300 | – | COCCOC(=O)c1cccc(C(=O)Nc2cccc(CN3CCC(Nc4cccc5cnccc45)C3)c2)c1 (stereo not shown) [Compound 22] |
| < 100 | – | – | – | < 300 | – | COC(=O)c1ccc(C(=O)Nc2cccc(CN3CCC(Nc4cccc5cnccc45)C3)c2)cc1 (stereo not shown) [Compound 2, Methyl 4-((3-((3-(isoquinolin-5-ylamino)pyrrolidin-1-yl)methyl)phenyl)carbamoyl)benzoate] |
| < 100 | – | – | – | – | – | COCCOC(=O)c1ccc(C(=O)Nc2cccc(CNC3CCC(Nc4cccc5cnccc45)CC3)c2)cc1 (stereo not shown) [Compound 31] |
| < 100 | < 20 | – | > 120 | – | – | CCCOC(=O)c1cccc(C(=O)Nc2cccc(CN3CCC(Nc4cccc5cnccc45)CC3)c2)c1 [Compound 33] |
| < 100 | < 20 | – | > 120 | 300 to 1000 | – | COCCOC(=O)c1cccc(C(=O)Nc2cccc(CN3CCC(Nc4cccc5cnccc45)CC3)c2)c1 [Compound 34] |
| < 100 | < 20 | – | > 120 | – | – | O=C(Nc1cccc(CN2CCC(Nc3cccc4cnccc34)CC2)c1)c1cccc(C(=O)OCC2CCCO2)c1 (stereo not shown) [Compound 35] |
| – | – | – | – | – | > 20 | O=C(O)c1ccc(C(=O)Nc2cccc(CNC3CCC(Nc4cccc5cnccc45)CC3)c2)cc1 (stereo not shown) [Met1] |
| < 100 | – | – | – | – | – | COCCOC(=O)c1ccc(C(=O)Nc2cccc(CN3CCC(Nc4cccc5cnccc45)C3)c2)cc1 (stereo not shown) [Compound 25] |
| < 100 | – | – | – | – | – | O=C(Nc1cccc(CN2CCC(Nc3cccc4cnccc34)CC2)c1)c1ccc(C(=O)OCC2CCCO2)cc1 (stereo not shown) [Compound 38] |
| < 100 | – | – | – | < 300 | – | CCCOC(=O)c1ccc(C(=O)Nc2cccc(CN3CCC(Nc4cccc5cnccc45)C3)c2)cc1 (stereo not shown) [Compound 24] |
| < 100 | < 20 | – | > 120 | – | – | CCCOC(=O)c1cccc(C(=O)Nc2cccc(CNC3CCC(Nc4cccc5cnccc45)CC3)c2)c1 (stereo not shown) [Compound 27] |
| < 100 | < 20 | – | > 120 | – | – | COCCOC(=O)c1cccc(C(=O)Nc2cccc(CNC3CCC(Nc4cccc5cnccc45)CC3)c2)c1 (stereo not shown) [Compound 28] |
| – | – | – | > 120 | – | – | COC(=O)c1ccc(C(=O)Nc2cc(CN3CCCC(Nc4ccc5[nH]ncc5c4)C3)ccc2C)cc1 (stereo not shown) [Compound 15] |
